In the NIST ThermoML archive (doi:10.1021/je049685z):

How the values were obtained:
[1] = xn = mol fraction of the nth substance listed; details: Liquid, x1 = 1
[2] = Liquid

CCCO [propan-1-ol] + Cc1ccccc1
mass density [kg/m3], [1]
Details	100 kPa	5000 kPa	10000 kPa	15000 kPa	20000 kPa	25000 kPa	30000 kPa
303.15 K	795.6	799.5	803.4	807	810.5	813.9	817.2
313.15 K	787.6	791.6	795.7	799.5	803.2	806.7	810.1
323.15 K	779.1	783.4	787.7	791.7	795.6	799.3	802.9
333.15 K	770.6	775.1	779.6	783.9	787.9	791.8	795.5

CCCO [propan-1-ol]
mass density [kg/m3], [2]
Details	100 kPa	5000 kPa	10000 kPa	15000 kPa	20000 kPa	25000 kPa	30000 kPa
303.15 K	795.6	799.5	803.4	807	810.5	813.9	817.2
313.15 K	787.6	791.6	795.7	799.5	803.2	806.7	810.1
323.15 K	779.1	783.4	787.7	791.7	795.6	799.3	802.9
333.15 K	770.6	775.1	779.6	783.9	787.9	791.8	795.5

Cc1ccccc1 [toluene]
mass density [kg/m3], [2]
Details	100 kPa	5000 kPa	10000 kPa	15000 kPa	20000 kPa	25000 kPa	30000 kPa
303.15 K	857.4	861.3	865.1	868.7	872.3	875.6	878.9
313.15 K	848.1	852.1	856.2	860	863.7	867.2	870.7
323.15 K	838.6	842.9	847.2	851.2	855.1	858.9	862.5
333.15 K	829.2	833.7	838.2	842.5	846.6	850.5	854.3
